Test results from article PMC8136825, “A nucleotide-sensing endonuclease from the Gabija bacterial defense system” (Nucleic Acids Research, 2021).

Molecular target: T1, GajA (Bacillus cereus, UniProt J8H9C1)
T1 construct: full length residues 1-578, N-terminal 6xHis tag kept (pET28a, NdeI/NotI), expressed in E. coli BL21(DE3), 69 kDa with tag; without GajB
Experiment: inhibition of lambda955 DNA cleavage, agarose gel densitometry
Format: biochemical
Conditions: 20 nM lambda955 DNA, 200 nM enzyme, 20 mM Tris-HCl pH 9, 1 mM MgCl2, 37 °C, 5 min; allosteric, ATPase-like domain

T1 sequence (J8H9C1 whole entry, the tested form may be a part): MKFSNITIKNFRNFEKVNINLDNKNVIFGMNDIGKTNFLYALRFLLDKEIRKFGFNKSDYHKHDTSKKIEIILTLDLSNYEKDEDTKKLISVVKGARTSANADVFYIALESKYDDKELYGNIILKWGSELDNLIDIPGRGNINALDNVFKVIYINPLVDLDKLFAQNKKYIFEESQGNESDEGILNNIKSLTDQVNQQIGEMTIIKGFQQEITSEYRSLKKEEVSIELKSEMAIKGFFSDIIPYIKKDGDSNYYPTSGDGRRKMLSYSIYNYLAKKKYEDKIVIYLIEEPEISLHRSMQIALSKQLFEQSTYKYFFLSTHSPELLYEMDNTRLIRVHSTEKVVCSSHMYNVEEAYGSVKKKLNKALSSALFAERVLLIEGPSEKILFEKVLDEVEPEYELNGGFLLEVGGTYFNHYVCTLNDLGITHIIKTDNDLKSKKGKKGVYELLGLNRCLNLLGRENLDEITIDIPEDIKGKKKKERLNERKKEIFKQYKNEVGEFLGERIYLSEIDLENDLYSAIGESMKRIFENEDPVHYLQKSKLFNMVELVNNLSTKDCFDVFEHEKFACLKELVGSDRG

Question: How did the inhibition turn out when `Nc1ncnc2c1ncn2[C@@H]1O[C@H](COP(=O)(O)OP(=O)(O)O)[C@@H](O)[C@H]1O` [ADP] was run?
Answer: strongly inhibited by all NTP and dNTP, even ADP, while AMP had no significant effect
